For data set [1], the target named is T1, ATX (Homo sapiens, UniProt Q13822). Kind of data set: Amplex Red Lyso-phospholipase D assay, human ATX. Details: purchased Sino Biological. The data set is classed as biochemical. As to conditions: for inhibition at 30 µM: Table S2, at 30uM, read-out: %inhibition at 30uM. Here is the method:
All compounds proposed were assessed for their ATX inhibitory activity in vitro using the Amplex Red assay. The Amplex Red Lyso-phospholipase D assay is a fluorometry-based assay providing a sensitive method for measuring Lyso-phospholipase D (ATX) activity in vitro. In this enzyme-coupled assay, ATX activity is monitored indirectly using 10-acetyl-3,7-dihydrophenoxazine (Amplex Red reagent), a sensitive fluorogenic probe for H2O2. ATX initially cleaves the Lysophosphatidylcholine (LPC) substrate to yield choline and Lysophosphatidic acid (LPA), while choline gets subsequently oxidized by choline oxidase to betaine and H2O2. Lastly, H2O2, in the presence of horseradish peroxidase (HRP), reacts with Amplex Red reagent in a 1:1 stoichiometry to generate the highly fluorescent product resorufin.
The inhibition assay was performed as previously described with some modifications in order to accommodate the newly-discovered lag phase in ATX kinetics. To this end, and in order to provide adequate time to the hydrolysis of LPC by ATX, we added a 30min incubation period between ATX, inhibitors and LPC. Briefly, 2 μL of different concentrations of inhibitors diluted in DMSO (Sigma-Aldrich, St. Louis, MO, USA) were incubated with 50 µL of ATX 8 nM (human or mouse ATX from Sino Biological), and 48 µL reaction buffer (50 mM Tris-Cl pH 8.0 from Thermo Fisher Scientific, Waltham, MA, USA and 5 mM CaCl2 from Honeywell-Fluka, Charlotte, NC, USA) in a black 96-well microplate for 15 min at 37 °C. Thence, another 50 µL of reaction buffer with 200 μM LPC substrate 16:0 (Avanti Polar Lipids Inc, Alabaster, AL, USA) ([…]) was added to the reaction mixture and incubated for 30 min at 37 °C in order for ATX to convert LPC to LPA and choline. Finally, 50 µL of working solution containing 200 μM Amplex Red (Invitrogen, Carlsbad, CA, USA), 4 U/mL HRP (Sigma-Aldrich, St. Louis, MO, USA), 0.4 U/mL choline oxidase (Sigma-Aldrich, St. Louis, MO, USA) in 50 mM Tris-HCl pH 8.0 and 5 mM CaCl2 was added to measure the produced choline. The reaction was monitored at 37 °C in a fluorescence plate reader using excitation at 530 nm and reading at 590 nm, every 5 min for 30 min. The velocity of the reaction and the remaining activity of ATX were calculated at the linear phase of the reaction and dose-response inhibition graphs were plotted with GraphPad Software (GraphPad Software, San Diego, CA, USA). […] In order to evaluate a possible effect of the compounds on the second (choline oxidase) and third (HRP) enzymes of the Amplex Red assay, we also performed the assay in the absence of ATX but in the presence of the compounds. Instead of ATX, we added choline chloride at a final concentration of 2 µM so as the second and third steps of the assay could proceed normally.

The nature of data set [2]: Solubility (Table S1). Particulars: YES/NO.
Data set [3] deals with T1, ATX. Kind of data set: IC50 Eleanna (Table S2, method not described). In kind it is biochemical. Particulars: Table S2; read-out: IC50 Eleanna.
Where [4] appears, read: recombinant human ATX 2 nM, LPC 16:0 substrate, Amplex Red, read-out: IC50 hATX.
Setting [5] is: in vitro IC50 (Sino hATX 2nM), Table S2, Sino hATX 2nM.

This passage reports IC50, Solubility and inhibition results from publication PMC7582705, “Structure-Based Discovery of Novel Chemical Classes of Autotaxin Inhibitors” (International Journal of Molecular Sciences, 2020).

`Cc1cc(OC(=O)c2c(-c3ccccc3)noc2C)c2cc(F)ccc2n1` [BTB01297, (6-fluoro-2-methylquinolin-4-yl) 5-methyl-3-phenyl-1,2-oxazole-4-carboxylate]: the IC50 in data set [1] (setting [4]) is over 100 µM. For the same molecule, the Solubility result in data set [2] is “YES”.

For the molecule `C(=C1c2ccccc2-c2ccccc21)C(C=C1c2ccccc2-c2ccccc21)c1ccccc1` [BTB11132, 9-[3-(9H-fluoren-9-yliden)-2-phenylpropylidene]-9H-fluorene], in data set [1] (setting [4]), the concentration for half-maximal inhibition (IC50) is over 100 µM. In addition, the Solubility entry in data set [2] is “YES”.

With `N#Cc1ccc(-c2c(NC(=O)NS(=O)(=O)c3ccccc3Cl)oc(-c3ccco3)c2C#N)cc1` [CD09529, 2-[({[(2-chlorophenyl)sulphonyl]amino}carbonyl)amino]-4-cyano-3-(4-cyanophenyl)-5-(2-furyl)furan], the IC50 in data set [1] (setting [4]) was over 100 µM. Also, in data set [2], the Solubility entry is “YES”.

For the molecule `O=C(c1ccc(Sc2ccccc2)c([N+](=O)[O-])c1)N(Cc1ccc2c(c1)OCO2)c1ccc(F)cc1` [DSHS00944, N-(1,,3-benzodioxol-5-ylmethyl)-N-(4-fluorophenyl)-3-nitro-4-,phenylsulfanylbenzamide], in data set [1] (setting [4]), the IC50 was over 100 µM. For the same molecule, the Solubility entry in data set [2] was “YES”.

`CCc1nc2c(C)cc(N3CCN(CC(=O)N4CC(O)C4)CC3)cn2c1N(C)c1nc(-c2ccc(F)cc2)c(C#N)s1` [GLPG1690, 2-[[2-ethyl-6-[4-[2-(3-hydroxyazetidin-1-yl)-2-oxoethyl]piperazin-1-yl]-8-methylimidazo[1,2-a]pyridin-3-yl]-methylamino]-4-(4-fluorophenyl)-1,3-thiazole-5-carbonitrile, reference compound]: the Solubility entry in data set [2] is listed as “YES”.

As for `O=C1S/C(=C\c2ccc(OCc3ccc(B(O)O)cc3)cc2)C(=O)N1Cc1ccc(F)cc1` [HA155, [4-[[4-[(Z)-[3-[(4-fluorophenyl)methyl]-2,4-dioxo-1,3-thiazolidin-5-ylidene]methyl]phenoxy]methyl]phenyl]boronic acid, reference compound], in data set [2], the Solubility entry was “YES”.

With `O=c1[nH]nc(-c2ccc(F)cc2)cc1Cc1cn(Cc2ccccc2)c2ccc([N+](=O)[O-])cc12` [HTS01403, 4-[(1-benzyl-5-nitro-1H-indol-3-yl)methyl]-6-(4-fluorophenyl)pyridazin-3(2H)-one], the IC50 in data set [1] (setting [4]) was over 100 µM. Further, the Solubility result in data set [2] was “YES”.

On to `O=C(Nc1c2c(nn1-c1ccccc1)C[S+]([O-])C2)c1cccc2ccccc12` (stereo not drawn) [SC-9, N-(5-oxo-2-phenyl-4,6-dihydrothieno[3,4-c]pyrazol-3-yl)naphthalene-1-carboxamide], for which the IC50 in data set [3] was over 5 µM; in data set [1] (setting [5]), over 30 µM.

Consider `Cn1c(-c2ccccc2)c(C(=O)Cn2cnc3ccsc3c2=O)c2ccccc21` [SC-10, 3-[2-(1-methyl-2-phenylindol-3-yl)-2-oxoethyl]thieno[3,2-d]pyrimidin-4-one], for which the IC50 in data set [3] was over 5 µM; in data set [1] (setting [5]), over 30 µM.

As for `O=C1Cc2cc(C(=O)CSc3nc4ccccc4n3-c3ccccc3)ccc2N1` [SC-12, 5-[2-(1-phenylbenzimidazol-2-yl)sulfanylacetyl]-1,3-dihydroindol-2-one], the results for the IC50 in data set [3] and in data set [1] (setting [5]) were 0.9 µM and over 30 µM, respectively.

In the case of `O=C(Nc1c2c(nn1-c1ccc(F)cc1)C[S+]([O-])C2)c1cccc2ccccc12` (stereo not drawn) [SC-14, N-[2-(4-fluorophenyl)-5-oxo-4,6-dihydrothieno[3,4-c]pyrazol-3-yl]naphthalene-1-carboxamide], the IC50 in data set [3] was over 5 µM; in data set [1] (setting [5]), over 30 µM. Also, in data set [1], the inhibition at 30 µM stood at 9.6%.

Turning to `Cc1ccc(-n2nc3c(c2NC(=O)c2cccc4ccccc24)C[S+]([O-])C3)cc1` (stereo not drawn) [SC-16, N-[2-(4-methylphenyl)-5-oxo-4,6-dihydrothieno[3,4-c]pyrazol-3-yl]naphthalene-1-carboxamide], the concentration for half-maximal inhibition (IC50) in data set [3] is over 5 µM; in data set [1] (setting [5]) it was over 30 µM. The inhibition at 30 µM in data set [1] worked out at 13.6%.

Regarding `Cc1ccc(S(=O)(=O)n2cc(C=C3C(=O)Nc4ccccc43)c3ccccc32)cc1` [SC-18, 3-[[1-(4-methylphenyl)sulfonylindol-3-yl]methylidene]-1H-indol-2-one], the IC50 in data set [3] was 5 µM; in data set [1] (setting [5]) it was 30 µM. In addition, the inhibition at 30 µM in data set [1] was found to be 55.3%.

Take `O=C(Nc1c2c(nn1-c1ccc(F)cc1)C[S+]([O-])C2)c1ccc2ccccc2c1` (stereo not drawn) [SC-24, N-[2-(4-fluorophenyl)-5-oxo-4,6-dihydrothieno[3,4-c]pyrazol-3-yl]naphthalene-2-carboxamide]: the half-maximal inhibitory concentration (IC50) was 4 µM in data set [3] and over 30 µM in data set [1] (setting [5]). For the same molecule, in data set [1], the inhibition at 30 µM came to 18.2%.

`Cc1ccc(S(=O)(=O)N2CCN3C(=O)c4ccccc4C32c2ccccc2)cc1` (stereo not drawn) [SC-26, 1-(4-methylphenyl)sulfonyl-9b-phenyl-2,3-dihydroimidazo[2,1-a]isoindol-5-one]: the half-maximal inhibitory concentration (IC50) in data set [3] was over 5 µM; in data set [1] (setting [5]), over 30 µM.

Consider `Cc1ccc(-n2nc3c(c2NC(=O)c2ccc4ccccc4c2)C[S+]([O-])C3)cc1` (stereo not drawn) [SC-27, N-[2-(4-methylphenyl)-5-oxo-4,6-dihydrothieno[3,4-c]pyrazol-3-yl]naphthalene-2-carboxamide], for which the IC50 was over 5 µM in data set [3] and over 30 µM in data set [1] (setting [5]).

For `Cc1nc(-c2ccc(NS(=O)(=O)c3ccc4c5c(cccc35)CC4)cc2)cs1` [SC-30, N-[4-(2-methyl-1,3-thiazol-4-yl)phenyl]-1,2-dihydroacenaphthylene-5-sulfonamide], the concentration for half-maximal inhibition (IC50) in data set [3] is over 5 µM; in data set [1] (setting [5]), over 30 µM.

As to `O=C(Cn1cnc2ccsc2c1=O)c1c(-c2ccccc2)[nH]c2ccccc12` [SC-34, 3-[2-oxo-2-(2-phenyl-1H-indol-3-yl)ethyl]thieno[3,2-d]pyrimidin-4-one], the IC50 in data set [3] is 5 µM; in data set [1] (setting [5]), over 30 µM. For the same molecule, in data set [1], the inhibition at 30 µM was 16%.

Regarding `CC12N[N+](c3ccccc3)=C(c3ccccc3)C1S(=O)(=O)c1ccccc12` (stereo not drawn) [SC-36, 8b-methyl-2,3-diphenyl-1,3a-dihydro-[1]benzothiolo[3,2-c]pyrazol-2-ium 4,4-dioxide], the IC50 in data set [3] was over 5 µM; in data set [1] (read-out: in vitro IC50 (Sino hATX 2nM), Table S2, Sino hATX 2nM), over 30 µM.

As to `Cc1ncc(-c2ccc(NS(=O)(=O)c3ccc4c5c(cccc35)CC4)cc2)o1` [SC-37, N-[4-(2-methyl-1,3-oxazol-5-yl)phenyl]-1,2-dihydroacenaphthylene-5-sulfonamide], the IC50 is over 5 µM in data set [3] and over 30 µM in data set [1] (setting [5]).

As to `CN1C(=O)C(=NNC(=O)c2cc(-c3cccs3)nc3ccccc23)c2ccccc21` [SC-40, N-[(1-methyl-2-oxoindol-3-ylidene)amino]-2-thiophen-2-ylquinoline-4-carboxamide], the IC50 is over 5 µM in data set [3] and over 30 µM in data set [1] (setting [5]).

With `O=C1c2ccccc2-c2ccc(C(=O)N3CCN(C(=O)c4cccs4)CC3)cc21` [SC-42, 2-[4-(thiophene-2-carbonyl)piperazine-1-carbonyl]fluoren-9-one], the IC50 in data set [3] is 4.53 µM; in data set [1] (setting [5]) it was over 30 µM.

Consider `Cc1ccc(-n2nc3c(c2NC(=O)c2cccc4ccccc24)CS(=O)(=O)C3)cc1` [SC-43, N-[2-(4-methylphenyl)-5,5-dioxo-4,6-dihydrothieno[3,4-c]pyrazol-3-yl]naphthalene-1-carboxamide], for which the IC50 in data set [3] is over 5 µM; in data set [1] (setting [5]), over 30 µM.

Take `O=C1NC(=O)C(=Cc2cn(Cc3ccc4ccccc4c3)c3ccccc23)S1` [SC-45, 5-[[1-(naphthalen-2-ylmethyl)indol-3-yl]methylidene]-1,3-thiazolidine-2,4-dione]: the IC50 in data set [3] is over 5 µM; in data set [1] (setting [5]) it was over 30 µM.

Consider `Cc1ccccc1-n1nc2c(c1NC(=O)c1ccc3ccccc3c1)CS(=O)(=O)C2` [SC-47, N-[2-(2-methylphenyl)-5,5-dioxo-4,6-dihydrothieno[3,4-c]pyrazol-3-yl]naphthalene-2-carboxamide], for which the concentration for half-maximal inhibition (IC50) in data set [3] is 3.4 µM; in data set [1] (setting [5]), over 30 µM. The inhibition at 30 µM in data set [1] came to 38.6%.
